Results from patent US20240360174A1, “CELL-PENETRATING PEPTIDE SEQUENCES” (Ohio State Innovation Foundation, priority 2016, published 2024).
Square brackets hold non-standard residues; d marks the D form. Phe(4-F) = N[C@@H](Cc1ccc(F)cc1)C(=O)O; 2Nal = N[C@@H](Cc1ccc2ccccc2c1)C(=O)O; d2Nal = N[C@H](Cc1ccc2ccccc2c1)C(=O)O; Pip = O=C(O)[C@@H]1CCCCN1

System: HeLa cells
Assay: Cellular uptake / cytosolic delivery efficiency of NF-labelled peptides by flow cytometry
Format: cell-based
Conditions: 2 h, 5 mM naphthofluorescein-labelled peptide, relative to CPP 1 (100%), mean ± S.D. of three independent experiments
Source text: Absolute cytosolic delivery efficiency is the ratio of cytosolic concentration of a CPP (or a CPP-cargo conjugate) over the concentration of the CPP (or the CPP-cargo conjugate) in the growth medium. Relative cytosolic delivery efficiency refers to the concentration of a CPP in the cytosol compared to the concentration of a control CPP in the cytosol. Quantification can be achieved by fluorescently labeling the CPP (e.g., with a FTIC dye) and measuring the fluorescence intensity using techniques well-known in the art.
In particular embodiments, relative cytosolic delivery efficiency is determined by comparing (i) the amount of a CPP of the invention internalized by a cell type (e.g., HeLa cells) to (ii) the amount of the control CPP internalized by the same cell type. To measure relative cytosolic delivery efficiency, the cell type may be incubated in the presence of a cell-penetrating peptide of the invention for a specified period of time (e.g., 30 minutes, 1 hour, 2 hours, etc.) after which the amount of the CPP internalized by the cell is quantified using methods known in the art, e.g., fluorescence microscopy. Separately, the same concentration of the control CPP is incubated in the presence of the cell type over the same period of time, and the amount of the control CPP internalized by the cell is quantified.
To determine cellular uptake efficiency of the CPPs disclosed herein, HeLa cells were cultured in 12-well plates (1.5×10^5 cells per well) overnight. The cells were incubated for 2 h with […] naphthofluorescein (NF)-labelled peptide in cellular media. At the end of incubation, the cells were washed with DPBS twice, detached from the plate with 0.25% trypsin, diluted into clear DMEM, pelleted at 250 g for 5 min, washed twice with DPBS, resuspended in DPBS, and analyzed on a BD FACS LSR II flow cytometer. For NF-labelled peptides, a 633-nm laser was used for excitation and the fluorescence emission was analyzed in the APC channel. Absolute cellular uptake efficiency was determined by comparing the concentration (via fluorescence intensity) of the CPP in the cytosol to the concentration in the extracellular medium.

| Substance | Relative Cytosolic Delivery Efficiency |
| --- | --- |
| cyclo(Pip-Nal-phe-Arg-arg-arg-glu) (cyclo([Pip][2Nal][dF]R[dR][dR][dE]); SMILES N=C(N)NCCC[C@@H]1NC(=O)[C@@H](Cc2ccccc2)NC(=O)[C@H](Cc2ccc3ccccc3c2)NC(=O)[C@@H]2CCCCN2C(=O)[C@@H](CCC(=O)O)NC(=O)[C@@H](CCCNC(=N)N)NC(=O)[C@@H](CCCNC(=N)N)NC1=O) [Pin1 21] | 27 ± 15% |
| cyclo(RFFFRRRQ) (cyclic) [SAR 48] | 167 ± 10% |
| cyclo(RFFRFRQ) (cyclic) [SAR 43] | 96 ± 31% |
| cyclo(RFFRRRQ) (cyclic) [SAR 31] | 63 ± 19% |
| cyclo(RFFRRRRQ) (cyclic) [SAR 46] | 104 ± 5% |
| cyclo(RFRRFRQ) (cyclic) [SAR 32] | 94 ± 9% |
| cyclo(RRFFFRQ) (cyclic) [SAR 37] | 172 ± 24% |
| cyclo(RRFFFRRQ) (cyclic) [SAR 49] | 112 ± 20% |
| cyclo(RRFFRRRQ) (cyclic) [SAR 47] | 115 ± 20% |
| cyclo(XXRRRRQ) (cyclo([Phe(4-F)][Phe(4-F)]RRRRQ); SMILES N=C(N)NCCC[C@@H]1NC(=O)[C@H](CCCNC(=N)N)NC(=O)[C@H](CCCNC(=N)N)NC(=O)[C@H](Cc2ccc(F)cc2)NC(=O)[C@H](Cc2ccc(F)cc2)NC(=O)[C@H](CCC(N)=O)NC(=O)[C@H](CCCNC(=N)N)NC1=O) [SAR 56] | 165 ± 22% |
| cyclo(fFfRrRQ) (cyclo([dF]F[dF]R[dR]RQ); SMILES N=C(N)NCCC[C@@H]1NC(=O)[C@@H](CCCNC(=N)N)NC(=O)[C@H](CCCNC(=N)N)NC(=O)[C@@H](Cc2ccccc2)NC(=O)[C@H](Cc2ccccc2)NC(=O)[C@@H](Cc2ccccc2)NC(=O)[C@H](CCC(N)=O)NC1=O) [SAR 59] | 185 ± 91% |
| cyclo(fFfrRrQ) (cyclo([dF]F[dF][dR]R[dR]Q); SMILES N=C(N)NCCC[C@@H]1NC(=O)[C@@H](CCCNC(=N)N)NC(=O)[C@@H](Cc2ccccc2)NC(=O)[C@H](Cc2ccccc2)NC(=O)[C@@H](Cc2ccccc2)NC(=O)[C@H](CCC(N)=O)NC(=O)[C@@H](CCCNC(=N)N)NC1=O) [SAR 58] | 280 ± 106% |
| cyclo(fFΦrRrQ) (cyclo([dF]F[d2Nal][dR]R[dR]Q); SMILES N=C(N)NCCC[C@@H]1NC(=O)[C@@H](CCCNC(=N)N)NC(=O)[C@@H](Cc2ccc3ccccc3c2)NC(=O)[C@H](Cc2ccccc2)NC(=O)[C@@H](Cc2ccccc2)NC(=O)[C@H](CCC(N)=O)NC(=O)[C@@H](CCCNC(=N)N)NC1=O) [SAR 61] | 330 ± 101% |
| cyclo(fΦfrRrQ) (cyclo([dF][2Nal][dF][dR]R[dR]Q); SMILES N=C(N)NCCC[C@@H]1NC(=O)[C@@H](CCCNC(=N)N)NC(=O)[C@@H](Cc2ccccc2)NC(=O)[C@H](Cc2ccc3ccccc3c2)NC(=O)[C@@H](Cc2ccccc2)NC(=O)[C@H](CCC(N)=O)NC(=O)[C@@H](CCCNC(=N)N)NC1=O) [SAR 62] | 357 ± 59% |
| cyclo(fΦrRrQ) (cyclo([dF][2Nal][dR]R[dR]Q); SMILES N=C(N)NCCC[C@@H]1NC(=O)[C@@H](CCCNC(=N)N)NC(=O)[C@H](Cc2ccc3ccccc3c2)NC(=O)[C@@H](Cc2ccccc2)NC(=O)[C@H](CCC(N)=O)NC(=O)[C@@H](CCCNC(=N)N)NC1=O) [SAR 65] | 172 ± 37% |
| cyclo(ΦFfrRrQ) (cyclo([d2Nal]F[dF][dR]R[dR]Q); SMILES N=C(N)NCCC[C@@H]1NC(=O)[C@@H](CCCNC(=N)N)NC(=O)[C@@H](Cc2ccccc2)NC(=O)[C@H](Cc2ccccc2)NC(=O)[C@@H](Cc2ccc3ccccc3c2)NC(=O)[C@H](CCC(N)=O)NC(=O)[C@@H](CCCNC(=N)N)NC1=O) [SAR 63] | 50 ± 9% |
